In patent publication US11834483B2, “Immunostimulatory agents in combination with angiogenesis inhibitors” (Alkermes Pharma Ireland Limited, priority 2020, dated 2023):
Like-named read-outs stand apart in the source and are kept apart here.

Legend:
[1] = system: MC38 murine colon carcinoma cells; conditions: for Median TTE: endpoint 1000 mm^3, 53 days; for Regressions CR: number of complete regressions; for Regressions PR: number of partial regressions; for Regressions TFS: tumor free survivors
[2] = system: CD8+ T cells, macrophages, dendritic cells; experiment: Immune cells in tumors and spleens of treated mice; type: in vivo
Excerpt: The combination therapy of the invention provides many beneficial and unexpected therapeutic effects as evidenced by mice treated with SEQ ID NO: 2, the murine surrogate for SEQ ID NO: 1.

[3] = system: CD8+T cells, NK cells, Tregs; conditions: first in human clinical data, U.S. Patent Publication Number 20210038684A1; cited from earlier work
[4] = Group 2: Lenvatinib 10 mg/kg po qd × 28 (vehicle 1 sc)
[5] = Group 2: Lenvatinib 10 mg/kg po qd × 28
[6] = Group 3: Lenvatinib 30 mg/kg po qd × 28 (vehicle 1 sc)
[7] = Group 3: Lenvatinib 30 mg/kg po qd × 28
[8] = Group 4: Lenvatinib 100 mg/kg po qd × 28 (vehicle 1 sc)
[9] = Group 4: Lenvatinib 100 mg/kg po qd × 28

Molecule	% TGD [1, 4]	T − C [1, 4]	Median TTE [1, 4]	Regressions CR [1, 5]	Regressions PR [1, 5]	Regressions TFS [1, 5]	% TGD [1, 6]	T − C [1, 6]	Median TTE [1, 6]	Regressions CR [1, 7]	Regressions PR [1, 7]	Regressions TFS [1, 7]	% TGD [1, 8]	T − C [1, 8]	Median TTE [1, 8]	Regressions CR [1, 9]	Regressions PR [1, 9]	Regressions TFS [1, 9]	macrophages [2]	expansion of CD8+T cells and NK cells versus Tregs [3]
COc1cc2nccc(Oc3ccc(NC(=O)NC4CC4)c(Cl)c3)c2cc1C(N)=O [Lenvatinib, 4-[3-Chloro-4-(cyclopropylaminocarbonyl)aminophenoxy]-7-methoxy-6-quinolinecarboxamide]	168%	24.0 days	38.3 days	0	1	0	162%	23.1 days	37.4 days	0	0	0	164%	23.4 days	37.7 days	0	0	0	decrease in macrophages	
fusion protein of SEQ ID NO: 1: circularly permuted (cp) IL-2 variant fused to the extracellular domain of the IL-2Rα portion of the IL-2 receptor (protein, Human cpIL-2IL-2R-alpha, circularly permuted (cp) IL-2 variant fused to the extracellular domain of the IL-2Rα portion of the IL-2 receptor) SKNFHLRPRDLISNINVIVLELKGSETTFMCEYADETATIVEFLNRWITFSQSIISTLTGGSSSTKKTQLQLEHLLLDLQMILNGINNYKNPKLTRMLTFKFYMPKKATELKHLQCLEEELKPLEEVLNLAQGSGGGSELCDDDPPEIPHATFKAMAYKEGTMLNCECKRGFRRIKSGSLYMLCTGNSSHSSWDNQCQCTSSATRNTTKQVTPQPEEQKERKTTEMQSPMQPVDQASLPGHCREPPPWENEATERIYHFVVGQMVYYQCVQGYRALHRGPAESVCKMTHGKTRWTQPQLICTG																				activates expansion of CD8+T cells and NK cells in a dose dependent manner in the absence of dose dependent activation of Tregs
